Values quoted from earlier work, collected in patent US20250289851A1, “CYCLIC PEPTIDES FOR DELIVERING THERAPEUTICS” (ENTRADA THERAPEUTICS, INC., priority 2022, published 2025).

What was measured:
[1] = hydrophobicity value, scale of Hoop and Woods
[2] = hydrophobicity value, scale of Engleman et al.
[3] = hydrophobicity value, scale of Kyte and Doolittle
[4] = hydrophobicity value, scale of Eisenberg and Weiss
[5] = hydrophobicity value, scale of Janin

Amino Acid Hydrophobicity, Hoop and Woods [1]: −1.8
Amino Acid Hydrophobicity, Engleman et al. [2]: 3.1
Amino Acid Hydrophobicity, Kyte and Doolittle [3]: 4.5
Amino Acid Hydrophobicity, Eisenberg and Weiss [4]: 0.73
Amino Acid Hydrophobicity, Janin [5]: 0.7
SMILES: CC[C@H](C)[C@H](N)C(=O)O [Ile, Isoleucine]
